The text below walks through data of US9550763B2, “Heterocyclic ring and carbocyclic derivative” (Shionogi & Co., Ltd., priority 2012, dated 2017).

In this test the target is human P2X3 receptor (Homo sapiens (Human), UniProt P56373). Kind of test: Evaluation of human P2X3 receptor inhibitory activity (Test Example 1-2, FLIPR 384, 384-well, 150 nM ATP). The format is cell-based. Conditions: human P2X3 receptor in C6BU-1 cells; Test Example 1-2 (compounds I-301 to I-483); read-out: P2X3 IC50. The method, then: Stably expressing cell line (C6BU-1 cell transfected with human P2X3 receptor gene (GenBank accession number Y07683) was used. The cells were seeded in a 384-well microtiter plate at a concentration of 3000 cells/well and cultured in the medium (7.0% fetal bovine serum, 7.0% horse serum, 1% antibiotic and antifungal in DMEM) for one day at 37° C. under 5% carbon dioxide atmosphere. The medium was replaced with 4 μM Fluo-3-AM solution (20 mM HEPES, […], 5.27 mM KCl, 0.9 mM MgCl2, 1.26 mM CaCl2, 5.6 mM D-glucose, 2.5 mM probenecid, 0.5% BSA, and 0.04% Pluronic F-127, pH 7.5) and incubated at 37° C. under 5% dioxide carbon atmosphere for one hour. The plate was washed with washing buffer (20 mM HEPES, 137 mM NaCl, 5.27 mM KCl, 0.9 mM MgCl2, 1.26 mM CaCl2, 5.6 mM D-glucose, 2.5 mM probenecid, pH7.5), and each well was added with 20 μL of this buffer. The plate was placed in High-Throughput Screening System FLIPR 384 (Molecular Device Co.). Measurement of fluorescence intensity by FLIPR 384 was started, and 20 μL of DMSO solutions containing different concentrations of the test compound as prepared by dilution with dilution buffer (20 mM HEPES, 137 mM NaCl, 5.27 mM KCl, 0.9 mM MgCl2, 1.26 mM CaCl2, 5.6 mM D-glucose, 2.5 mM probenecid, 0.1% Pluronic F-127, pH 7.5) were dispensed to each well through the built-in automatic dispenser. Five minutes after, 150 nM ATP solution (25 μL) prepared by dilution with the dilution buffer was dispensed through the built-in automatic dispenser, and the measurement of fluorescence intensity was continued for 4 min. For each well, the specific maximum fluorescence intensity was calculated as the ratio of the maximum fluorescence intensity after addition of the ATP solution to the fluorescence intensity at the starting of the measurement. The 50% inhibitory concentration (IC50) was calculated under the assumption that the specific maximum fluorescence intensity without test compound is 0% inhibition and that the specific maximum fluorescence intensity when the dilution buffer was added in place of ATP solution is 100% inhibition, to evaluate the inhibitory activity of the test compound. The specific maximum fluorescence intensity and IC50 were calculated using Spotfire (Science & Technology Systems, Inc.)
Chain of human P2X3 receptor (P56373 whole entry): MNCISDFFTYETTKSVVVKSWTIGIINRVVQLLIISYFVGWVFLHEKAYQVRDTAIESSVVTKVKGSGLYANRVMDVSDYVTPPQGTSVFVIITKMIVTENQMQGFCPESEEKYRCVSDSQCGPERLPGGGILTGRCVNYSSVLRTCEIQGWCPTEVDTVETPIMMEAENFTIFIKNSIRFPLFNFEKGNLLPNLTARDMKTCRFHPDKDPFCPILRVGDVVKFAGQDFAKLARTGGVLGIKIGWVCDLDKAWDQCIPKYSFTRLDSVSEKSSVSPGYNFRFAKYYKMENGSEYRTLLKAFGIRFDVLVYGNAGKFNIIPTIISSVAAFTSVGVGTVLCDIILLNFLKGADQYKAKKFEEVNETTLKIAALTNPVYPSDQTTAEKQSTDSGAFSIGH
The data of the compounds I-001 to I-300 are the results by the method mentioned in Test Example 1-1, and the data of the compounds I-301 to I-483 are the results by the method mentioned in Test Example 1-2.

`CC(C)[C@H](NC(=O)c1cn(Cc2ccc(Cl)cc2)c(Nc2ccc(Oc3cccc(F)n3)cc2)nc1=O)C(N)=O` [Compound I-380]: the half-maximal inhibitory concentration (IC50) worked out at 4 nM.

With `C[C@H](NC(=O)c1cn(Cc2ccc(Cl)cc2)c(Nc2ccc(Oc3cccc(F)n3)cc2)nc1=O)C(N)=O` [Compound I-381], the IC50 amounted to 4 nM.

Consider `O=C(NCC(=O)N1CCCCC1)c1cn(Cc2ccc(Cl)cc2)c(Nc2ccc(Oc3cccc(F)n3)cc2)nc1=O` [Compound I-382], for which the IC50 amounted to 9 nM.

Take `O=C(NC1CCCOC1)c1cn(Cc2ccc(Cl)cc2)c(Nc2ccc(Oc3cccc(F)n3)cc2)nc1=O` (stereo not drawn) [Compound I-383]: the IC50 is 13 nM.

On to `O=C(NCc1ncco1)c1cn(Cc2ccc(Cl)cc2)c(Nc2ccc(Oc3cccc(F)n3)cc2)nc1=O` [Compound I-384], for which the IC50 is 60 nM.

With `CC1(NC(=O)c2cn(Cc3ccc(Cl)cc3)c(Nc3ccc(Oc4cccc(F)n4)cc3)nc2=O)CCOCC1` [Compound I-385], the IC50 was 16 nM.

For `O=C(NC[C@@H]1CCCO1)c1cn(Cc2ccc(Cl)cc2)c(Nc2ccc(Oc3cccc(F)n3)cc2)nc1=O` [Compound I-386], the IC50 turned out to be 15 nM.

As to `O=C(NC[C@H]1CCCO1)c1cn(Cc2ccc(Cl)cc2)c(Nc2ccc(Oc3cccc(F)n3)cc2)nc1=O` [Compound I-387], the IC50 turned out to be 14 nM.

Take `O=C(NCC1CCCCO1)c1cn(Cc2ccc(Cl)cc2)c(Nc2ccc(Oc3cccc(F)n3)cc2)nc1=O` (stereo not drawn) [Compound I-388]: the IC50 was 29 nM.

Take `O=C(NC1CCNC1=O)c1cn(Cc2ccc(Cl)cc2)c(Nc2ccc(Oc3cccc(F)n3)cc2)nc1=O` (stereo not drawn) [Compound I-389]: the IC50 is 10 nM.

For `O=C(NC1(CO)CCOCC1)c1cn(Cc2ccc(Cl)cc2)c(Nc2ccc(Oc3cccc(F)n3)cc2)nc1=O` [Compound I-390], the IC50 turned out to be 59 nM.

Turning to `Cn1nccc1NC(=O)c1cn(Cc2ccc(Cl)cc2)c(Nc2ccc(Oc3cccc(F)n3)cc2)nc1=O` [Compound I-391], the IC50 stood at 30 nM.

As to `Cc1nc(CNC(=O)c2cn(Cc3ccc(Cl)cc3)c(Nc3ccc(Oc4cccc(F)n4)cc3)nc2=O)no1` [Compound I-392], the half-maximal inhibitory concentration (IC50) worked out at 128 nM.

With `O=C(NCC1CCCC1)c1cn(Cc2ccc(Cl)cc2)c(Nc2ccc(Oc3cccc(F)n3)cc2)nc1=O` [Compound I-393], the IC50 came out at 110 nM.

As for `O=C(N[C@H]1COC[C@@H]1O)c1cn(Cc2ccc(Cl)cc2)c(Nc2ccc(Oc3cccc(F)n3)cc2)nc1=O` [Compound I-394], the half-inhibitory concentration (IC50) came to 11 nM.

In the case of `O=C(Nc1cn[nH]c1)c1cn(Cc2ccc(Cl)cc2)c(Nc2ccc(Oc3cccc(F)n3)cc2)nc1=O` [Compound I-395], the IC50 came out at 22 nM.

With `O=C(NCC1CCOC1)c1cn(Cc2ccc(Cl)cc2)c(Nc2ccc(Oc3cccc(F)n3)cc2)nc1=O` (stereo not drawn) [Compound I-396], the 50% inhibitory concentration (IC50) was 25 nM.

Turning to `O=C(Nc1cnoc1)c1cn(Cc2ccc(Cl)cc2)c(Nc2ccc(Oc3cccc(F)n3)cc2)nc1=O` [Compound I-397], the IC50 amounted to 56 nM.

Regarding `O=C(N[C@@H]1CCOC1)c1cn(Cc2ccc(Cl)cc2)c(Nc2ccc(Oc3cccc(F)n3)cc2)nc1=O` [Compound I-398], the IC50 was found to be 22 nM.

With `O=c1c(-c2nnc(CO)o2)c[nH]/c(=N\c2ccc(Oc3ccon3)cc2)n1Cc1ccc(Cl)cc1` [Compound I-399], the IC50 turned out to be 36 nM.

Consider `CC(C)c1c[nH]/c(=N\c2ccc(Oc3ccc(C(=O)O)cn3)cc2)n(Cc2ccc(Cl)cc2)c1=O` [Compound I-400], for which the IC50 came to 16 nM.

With `CC(C)c1c[nH]/c(=N\c2ccc(Oc3cncc(C(=O)O)c3)cc2)n(Cc2ccc(Cl)cc2)c1=O` [Compound I-401], the concentration for half-maximal inhibition (IC50) was determined as 12 nM.

Consider `O=C(NC1CCOCC1)c1cn(Cc2ccc(F)cc2F)c(Nc2ccc(Oc3cccc(F)n3)cc2)nc1=O` [Compound I-402], for which the IC50 was 9 nM.

With `COc1cn(Cc2ccc(Cl)cc2)c(Nc2ccc(Oc3cccc(C(N)=O)n3)cc2)nc1=O` [Compound I-403], the IC50 came to 243 nM.

As for `COc1cn(Cc2ccc(Cl)cc2)c(Nc2ccc(Oc3cccc(C(=O)O)n3)cc2)nc1=O` [Compound I-404], the 50% inhibitory concentration (IC50) came out at 102 nM.

As to `Cc1nc(Nc2cc(=O)n(CC(F)(F)C(=O)O)c(=O)n2Cc2ccc(Cl)cc2)ccc1Oc1ccc(F)cn1` [Compound I-405], the IC50 turned out to be 5 nM.

As for `C#CCNC(=O)c1c[nH]/c(=N\c2ccc(Oc3cccc(F)n3)cc2)n(Cc2ccc(Cl)cc2)c1=O` [Compound I-406], the IC50 amounted to 8 nM.

Take `O=C(NCC1CC1)c1c[nH]/c(=N\c2ccc(Oc3cccc(F)n3)cc2)n(Cc2ccc(Cl)cc2)c1=O` [Compound I-407]: the IC50 was determined as 68 nM.

For the compound `N#Cc1cccc(Oc2ccc(/N=c3\[nH]cc(-c4ccccc4)c(=O)n3Cc3ccc(Cl)cc3)cc2)n1` [Compound I-408, 1-(4-chlorobenzyl)-2-[4-(6-cyano-2-pyridyloxy)phenylamino]-5-phenylpyrimidin-6(1H)-one], the IC50 is 407 nM.

For the compound `CC(C)c1c[nH]/c(=N\c2ccc(Oc3ccnc(C(=O)O)c3)cc2)n(Cc2ccc(Cl)cc2)c1=O` [Compound I-409], the IC50 was determined as 24 nM.

Take `CCOC(=O)c1cnc(Oc2ccc(/N=c3\[nH]cc(C(C)C)c(=O)n3Cc3ccc(Cl)cc3)cc2)s1` [Compound I-410]: the IC50 was determined as 626 nM.

With `CCC(=O)Nc1c[nH]/c(=N\c2ccc(Oc3ccc(C(F)(F)F)nn3)cc2)n(Cc2ccc(Cl)cc2)c1=O` [Compound I-411], the IC50 was 10 nM.

As for `CC(C)c1c[nH]/c(=N\c2ccc(Oc3ncc(C(=O)O)s3)cc2)n(Cc2ccc(Cl)cc2)c1=O` [Compound I-412], the IC50 came to 9 nM.

As to `Cc1c[nH]c2cc(Nc3ncc(NC(=O)C4CCOCC4)c(=O)n3Cc3ccc(Cl)cc3)ccc12` [Compound I-413], the IC50 is 897 nM.

With `Cc1c[nH]c2ccc(Nc3ncc(NC(=O)C4CCOCC4)c(=O)n3Cc3ccc(Cl)cc3)cc12` [Compound I-414], the IC50 came to 392 nM.

Regarding `CCc1c[nH]c2cc(Nc3ncc(NC(=O)C4CCOCC4)c(=O)n3Cc3ccc(Cl)cc3)ccc12` [Compound I-416], the IC50 amounted to 406 nM.

Consider `O=C(NCCCO)c1cn(Cc2ccc(Cl)cc2)c(Nc2ccc(Oc3cccc(F)n3)cc2)nc1=O` [Compound I-418], for which the half-inhibitory concentration (IC50) was 45 nM.

`O=C(NCc1ccoc1)c1cn(Cc2ccc(Cl)cc2)c(Nc2ccc(Oc3cccc(F)n3)cc2)nc1=O` [Compound I-419]: the IC50 amounted to 55 nM.

Regarding `Cc1cc(CNC(=O)c2cn(Cc3ccc(Cl)cc3)c(Nc3ccc(Oc4cccc(F)n4)cc3)nc2=O)no1` [Compound I-420], the IC50 amounted to 88 nM.

On to `O=C(Nc1cc[nH]n1)c1cn(Cc2ccc(Cl)cc2)c(Nc2ccc(Oc3cccc(F)n3)cc2)nc1=O` [Compound I-421], for which the IC50 came out at 17 nM.

As to `O=C(O)c1cccc(Oc2ccc(/N=c3\[nH]cc(-c4ccccc4)c(=O)n3Cc3ccc(Cl)cc3)cc2)n1` [Compound I-422], the IC50 amounted to 3 nM.

Consider `NNC(=O)c1c[nH]/c(=N\c2ccc(Oc3ccon3)cc2)n(Cc2ccc(Cl)cc2)c1=O` [Compound I-423], for which the IC50 is 81 nM.

In the case of `N#CCNC(=O)c1c[nH]/c(=N\c2ccc(Oc3ccon3)cc2)n(Cc2ccc(Cl)cc2)c1=O` [Compound I-425], the IC50 is 21 nM.

Consider `N#CCNC(=O)c1c[nH]/c(=N\c2ccc(Oc3ccc(F)cn3)cc2)n(Cc2ccc(Cl)cc2)c1=O` [Compound I-426], for which the IC50 is 15 nM.

Regarding `C#CCNC(=O)c1c[nH]/c(=N\c2ccc(Oc3ccc(F)cn3)cc2)n(Cc2ccc(Cl)cc2)c1=O` [Compound I-427], the IC50 came to 5 nM.

Consider `CCOc1cn(Cc2ccc(Cl)cc2)c(Nc2ccc(Oc3cccc(C#N)n3)cc2)nc1=O` [Compound I-429], for which the IC50 was found to be 441 nM.

As for `CNC(=O)CNC(=O)c1cn(Cc2ccc(Cl)cc2)c(Nc2ccc(Oc3cccc(F)n3)cc2)nc1=O` [Compound I-430], the IC50 was found to be 83 nM.

On to `NC(=O)CNC(=O)c1cn(Cc2ccc(Cl)cc2)c(Nc2ccc(Oc3cccc(F)n3)cc2)nc1=O` [Compound I-431], for which the IC50 worked out at 44 nM.

`CCC(=O)Nc1c[nH]/c(=N\c2ccc(Oc3cc(C)c(Cl)nn3)cc2)n(Cc2ccc(Cl)cc2)c1=O` [Compound I-432]: the IC50 is 12 nM.

`CCC(=O)Nc1c[nH]/c(=N\c2ccc(Oc3cc(C)cnn3)cc2)n(Cc2ccc(Cl)cc2)c1=O` [Compound I-433]: the IC50 was found to be 99 nM.

With `CCCc1c[nH]/c(=N\c2ccc(Oc3cccc(C#N)n3)cc2)n(Cc2ccc(Cl)cc2)c1=O` [Compound I-434], the IC50 came out at 193 nM.
